This note sets out measurements from BindingDB's records for doi:10.1021/acs.jmedchem.1c00019 (National Center For Advancing Translational Sciences, 2021).

Molecules are shown by their SMILES. Where “and” joins values, the source holds several entries; their conditions need not be identical. Equal entries are not always repeated.

For test [1], the target named is T1, Isocitrate dehydrogenase [NADP] cytoplasmic (Homo sapiens, UniProt O75874). Kind of test: Inhibition of IDH1 R132C mutant (unknown origin) assessed as reduction in NADPH consumption using alpha-KG as substrate incubated for 5 mins by diaphorase/resazurin-coupled system. Background: The colour change of resazurin is a common sign of viable cells or microbes.
Target sequence in this assay (O75874 2-414 R132C limits assumed): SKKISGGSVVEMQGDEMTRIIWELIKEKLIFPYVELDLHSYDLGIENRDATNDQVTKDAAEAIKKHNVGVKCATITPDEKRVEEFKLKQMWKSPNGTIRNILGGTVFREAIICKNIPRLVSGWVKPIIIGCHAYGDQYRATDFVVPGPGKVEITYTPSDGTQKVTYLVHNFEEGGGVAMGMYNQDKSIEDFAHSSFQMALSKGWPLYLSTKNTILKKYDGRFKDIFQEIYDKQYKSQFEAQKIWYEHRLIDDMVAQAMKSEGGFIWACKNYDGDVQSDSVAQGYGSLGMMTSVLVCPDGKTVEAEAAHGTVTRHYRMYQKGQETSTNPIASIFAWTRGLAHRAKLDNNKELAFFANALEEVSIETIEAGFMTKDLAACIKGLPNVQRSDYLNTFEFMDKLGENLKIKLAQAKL
Test [2] concerns the target T1, Isocitrate dehydrogenase [NADP] cytoplasmic. Kind of test: Inhibition of IDH1 R132H mutant (unknown origin) assessed as reduction in NADPH consumption using alpha-KG as substrate incubated for 5 mins by diaphorase/resazurin-coupled system.
Target sequence in this assay (O75874 2-414 R132H limits assumed): as the sequence (O75874 2-414 R132C limits assumed) above, with C131H counted along it

By IC50 is commonly meant the midpoint of a concentration-inhibition curve. As to `CCc1ccc(Cl)cc1-n1c(C=C(C)C)c(C(=O)N2CCNCC2)cc(-c2nc(-c3ccc(Cl)cc3)cs2)c1=O`, the IC50 in test [1] was 100 nM and 72 nM; in test [2], 114 nM and 81 nM. Consider `CCc1ccc(OC)cc1-n1c(C=C(C)C)c(C(=O)N2CCNCC2)cc(-c2nc(-c3ccc(Cl)cc3)cs2)c1=O`, for which the IC50 in test [1] is 130 nM.
